Values quoted from earlier work in patent US11206824B2, “Gas delivery device comprising a gas releasing molecule and a gas permeable membrane” (Julius-Maximilians-Universitaet Wuerzburg, priority 2015, dated 2021).

How the values were obtained:
[1] = test system: liver transplantation associated I/R injury; conditions: pre-treatment of donors, inhaled
[2] = test system: renal warm ischemia reperfusion injury; conditions: i.v. 20 mg/kgBW, mice
rodent kidney grafts = conditions: 1 ml, 100 μmol/L in UW solution, 26 h cold preservation
rodent liver = conditions: 50 μM in modified UW solution, 48 h cold ischemia

## [C-]#[O+] [CO, carbon monoxide]
[1]
  liver transplantation associated I/R injury: ameliorates

## [C-]#[O+].[C-]#[O+].[C-]#[O+].[C-]#[O+].[C-]#[O+].[C-]#[O+].[Cl][Ru][Cl].[Cl][Ru][Cl] [CORM-2, tricarbonyldichlororuthenium(II) dimer]
[2]
  protection against lethal renal warm ischemia reperfusion injury: almost completely protects

## NCC(=O)O.[C-]#[O+].[C-]#[O+].[C-]#[O+].[Cl][Ru] [CORM-3, tricarbonylchloro ruthenium-glycinato]
Rodent kidney grafts
  cellular and graft injury and survival: significant impact on decreasing cellular and graft injury, and improving survival
Rodent liver
  perfusion flow, intrahepatic resistance and metabolic capacity: improved
